In patent US6784201B2, “Benzothiepines having activity as inhibitors of ileal bile acid transport and taurocholate uptake” (G.D. Searle & Company, priority 1994, dated 2004) one finds IC50 data, which are given here for 62 compounds.

For the assay, the target named is T1, human IBAT (Homo sapiens, UniProt Q12908).
T1 construct: expressed in transfected cells; host or cells: Baby hamster kidney (BHK) cells, clone H14
T1 sequence (Q12908 1-348): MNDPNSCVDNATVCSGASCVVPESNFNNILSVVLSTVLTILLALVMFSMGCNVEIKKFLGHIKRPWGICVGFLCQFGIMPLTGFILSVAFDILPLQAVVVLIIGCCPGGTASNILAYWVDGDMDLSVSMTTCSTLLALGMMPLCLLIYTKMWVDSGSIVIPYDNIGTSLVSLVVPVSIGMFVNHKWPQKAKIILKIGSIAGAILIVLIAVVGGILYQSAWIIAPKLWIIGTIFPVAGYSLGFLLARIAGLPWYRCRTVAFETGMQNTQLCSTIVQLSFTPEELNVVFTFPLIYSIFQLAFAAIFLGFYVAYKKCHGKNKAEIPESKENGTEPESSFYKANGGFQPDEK
The experiment in a line: In vitro assay of IBAT-mediated uptake of [14C]-taurocholate (TC) in H14 cells. It is filed as cell-based. Conditions: read-out: Human TC IC50. The gist of the method:
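BHK cells stably expressing human IBAT (H14) were incubated 2 h at 37° C with compound and 3 μM final [14C]-taurocholate in DMEM (4.5 g/L glucose) plus 0.2% fatty acid-free BSA. After cold PBS washes, cell-associated radioactivity was measured by scintillation counting.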
In general, IC50 refers to the point on the concentration scale where inhibition reaches its midpoint. For the compound `CCCCN(C)c1ccc2c(c1)C(c1cccc(OC)c1)C(O)C(CCCC)(CCCC)CS2(=O)=O` (centres unmarked) [Example 1177], the IC50 stood at 0.18 µM.

Take `CCCCC1(CCCC)CS(=O)(=O)c2ccc(N(C)C)cc2C(c2cccc(OS(=O)(=O)C(F)(F)F)c2)C1O` (centres unmarked) [Example 1178]: the IC50 is 0.19 µM.

Consider `CCCCC1(CCCC)CS(=O)(=O)c2cc(OC)ccc2C(c2ccccc2)C1O` (centres unmarked) [Example 1179], for which the IC50 amounted to 0.19 µM.

For `CCCCC1(CCCC)CS(=O)(=O)c2ccc([N+](C)(C)C)cc2C(c2ccccc2)C1O` (centres unmarked) [Example 1180], the IC50 stood at 0.2 µM.

In the case of `CCCCN(C)c1ccc2c(c1)C(c1ccc(F)cc1)C(O)C(CCCC)(CCCC)CS2(=O)=O` (centres unmarked) [Example 1181], the IC50 came to 0.22 µM.

For the compound `CCCCC1(CCCC)CS(=O)(=O)c2ccc(OC)cc2C(c2ccc(N(C)C)cc2)C1O` (centres unmarked) [Example 1182], the IC50 turned out to be 0.25 µM.

With `CCCCC1(CCCC)CS(=O)(=O)c2ccc(F)cc2C(c2cccc(OC)c2)C1O` (centres unmarked) [Example 1183], the IC50 was 0.28 µM.

Turning to `CCCCC1(CCCC)CS(=O)(=O)c2c(F)cc(F)cc2C(c2ccc(F)cc2)C1O` (centres unmarked) [Example 1184], the IC50 is 0.28 µM.

Turning to `CCCCC1(CCCC)CS(=O)(=O)c2ccc(F)cc2C(c2ccc(F)cc2)C1O` (centres unmarked) [Example 1185], the IC50 was found to be 0.28 µM.

Regarding `CCCCC1(CCCC)CS(=O)(=O)c2c(F)cc(F)cc2C(c2ccccc2)C1O` (centres unmarked) [Example 1186], the IC50 was 0.3 µM.

As for `CCCCC1(CCCC)CS(=O)(=O)c2ccc(C)cc2C(c2ccc(F)cc2)C1O` (centres unmarked) [Example 1187], the IC50 is 0.32 µM.

Turning to `CCCCC1(CCCC)CS(=O)(=O)c2ccc([N+](C)(C)C)cc2C(c2ccc(OC)cc2)C1O` (centres unmarked) [Example 1188], the IC50 was 0.35 µM.

Regarding `CCCCC1(CCCC)CS(=O)(=O)c2ccc([N+](C)(C)C)cc2C(c2ccc(F)c(F)c2)C1O` (centres unmarked) [Example 1189], the IC50 is 0.35 µM.

Regarding `CCCCC1(CCCC)CS(=O)(=O)c2ccc(Br)cc2C(c2ccccc2Br)C1O` (centres unmarked) [Example 1190], the IC50 worked out at 0.55 µM.

For `CCCCC1(CCCC)CS(=O)(=O)c2ccc(O)cc2C(c2ccc(N(C)C)cc2)C1O` (centres unmarked) [Example 1191], the IC50 worked out at 0.65 µM.

For `CCCCC1(CCCC)CS(=O)(=O)c2ccc(O)cc2C(c2cccc(N(C)C)c2)C1O` (centres unmarked) [Example 1192], the IC50 turned out to be 1 µM.

Regarding `CCCCC1(CCCC)CS(=O)(=O)c2ccc(N(C)C)cc2C(c2ccc(OCCOCCOCCOc3ccc(C4c5cc(N(C)C)ccc5S(=O)(=O)CC(CCCC)(CCCC)C4O)cc3F)c(F)c2)C1O` (centres unmarked) [Example 1194], the IC50 worked out at 1.6 µM.

On to `CCCCC1(CCCC)CS(=O)(=O)c2ccc(N3CCN(C)CC3)cc2C(c2ccc(OC)cc2)C1O` (centres unmarked) [Example 1195], for which the IC50 stood at 1.7 µM.

Regarding `CCCCC1(CCCC)CS(=O)(=O)c2ccc(OC)cc2C(c2cccc([N+](C)(C)C)c2)C1O` (centres unmarked) [Example 1196], the IC50 came out at 2 µM.

For the compound `CCCCC1(CC)CS(=O)(=O)c2ccc(N(C)C=O)cc2C(c2ccccc2)C1=O` (centres unmarked) [Example 1197], the IC50 stood at 2.2 µM.

Regarding `CCCCC1(CCCC)CS(=O)(=O)c2ccc(OC)cc2C(c2cc[n+]([O-])cc2)C1O` (centres unmarked) [Example 1198], the IC50 was 2.5 µM.

With `CCCCC1(CCCC)CS(=O)(=O)c2ccc(N(C)C)cc2C(c2ccc(OCCOCCOCCOc3ccc(C4c5cc(N(C)C)ccc5S(=O)(=O)CC(CCCC)(CCCC)C4O)cc3)cc2)C1O` (centres unmarked) [Example 1199], the IC50 came out at 4 µM.

For the compound `CCCCC1(CCCC)CS(=O)(=O)c2ccc(C)cc2CC1O` (centres unmarked) [Example 1201], the IC50 stood at 8.3 µM.

As to `CCCCC1(CCCC)CS(=O)(=O)c2ccc(OC)cc2C(c2ccc([N+](C)(C)C)cc2)C1O` (centres unmarked) [Example 1202], the IC50 was found to be 40 µM.

In the case of `CCCCC1(CCCC)CS(=O)(=O)c2ccc(OC)cc2C(c2ccc(F)cc2)C1O` (centres unmarked) [Example 1204], the IC50 is 0.05 µM.

Regarding `CCCCC1(CCCC)CS(=O)(=O)c2ccc(N(C)C)cc2C(c2ccc(OCCOCCOCCI)cc2)C1O` (centres unmarked) [Example 1205], the IC50 was determined as 0.034 µM.

`CCCCC1(CCCC)CS(=O)(=O)c2ccc(N(C)C)cc2C(c2cccc(C[N+](CC)(CC)CC)c2)C1O` (centres unmarked) [Example 1206]: the IC50 is 0.035 µM.

On to `CCCCC1(CCCC)CS(=O)(=O)c2ccc(N(C)C)cc2C(c2cc(Cl)cc(Cl)c2)C1O` (centres unmarked) [Example 1207], for which the IC50 was found to be 0.068 µM.

Regarding `CCCCC1(CCCC)CS(=O)(=O)c2ccc(N(C)C)cc2C(c2ccc(OC)cc2)C1O` (centres unmarked) [Example 1208], the IC50 is 0.042 µM.

With `CCCCC1(CCCC)CS(=O)(=O)c2ccc(N(C)C)cc2C(c2ccccc2N(C)C)C1O` (centres unmarked) [Example 1210], the IC50 was determined as 0.14 µM.

As for `CCCCC1(CC)CS(=O)(=O)c2ccc(N(C)C=O)cc2C(c2ccccc2)C1O` (centres unmarked) [Example 1214], the IC50 was determined as 0.75 µM.

Turning to `CCCCC1(CCCC)CS(=O)(=O)c2c(SC)cccc2C(c2ccc(OC)cc2)C1O` (centres unmarked) [Example 1215], the IC50 came out at 0.19 µM.

In the case of `CCCCC1(CCCC)CS(=O)(=O)c2ccc(N(C)C)cc2C(c2ccc(C(=O)O)cc2)C1O` (centres unmarked) [Example 1217], the IC50 came out at 0.32 µM.

For the compound `CCCCC1(CCCC)CS(=O)(=O)c2c(cccc2S(C)(=O)=O)C(c2ccc(OC)cc2)C1O` (centres unmarked) [Example 1218], the concentration for half-maximal inhibition (IC50) is 0.19 µM.

Regarding `CCCCC1(CCCC)CS(=O)(=O)c2ccc(N(C)C)cc2C(c2ccc(OCCN(C)C)cc2)C1O` (centres unmarked) [Example 1219], the IC50 was 0.34 µM.

For `CCCCC1(CCCC)CS(=O)(=O)c2ccc(NC(C)C)cc2C(c2cccc(OC)c2)C1O` (centres unmarked) [Example 1220], the IC50 amounted to 0.2 µM.

Take `CCCCC1(CCCC)CS(=O)(=O)c2ccc(N(C)C)cc2C(c2ccc(C(=O)OC)cc2)C1O` (centres unmarked) [Example 1221]: the IC50 was 0.041 µM.

As to `CCCCC1(CCCC)CS(=O)(=O)c2ccc(NCC)cc2C(c2cccc(OC)c2)C1O` (centres unmarked) [Example 1222], the IC50 stood at 0.065 µM.

For `CCCCC1(CCCC)CS(=O)(=O)c2cc(Br)c(NC)cc2C(c2ccccc2)C1O` (centres unmarked) [Example 1223], the IC50 came out at 0.28 µM.

Consider `CCCCC1(CCCC)CS(=O)(=O)c2ccc(F)cc2C(c2cccc([N+](=O)[O-])c2)C1O` (centres unmarked) [Example 1224], for which the IC50 amounted to 0.33 µM.

As to `CCCCC1(CCCC)CS(=O)(=O)c2cc(Br)c(N(C)C)cc2C(c2ccc[nH]2)C1O` (centres unmarked) [Example 1228], the IC50 amounted to 0.038 µM.

Regarding `CCCCC1(CCCC)CS(=O)(=O)c2ccc(N(C)C)cc2C(c2ccc(O)c(Cl)c2)C1O` (centres unmarked) [Example 1229], the IC50 worked out at 0.049 µM.

On to `CCCCC1(CCCC)CS(=O)(=O)c2c(cc(F)cc2N(C)C)C(c2ccccc2)C1O` (centres unmarked) [Example 1230], for which the IC50 is 0.062 µM.

In the case of `CCCCC1(CCCC)CS(=O)(=O)c2ccc(N(C)C)cc2C(c2ccc3cc(OC)ccc3c2)C1O` (centres unmarked) [Example 1231], the IC50 was 0.075 µM.

`CCCCC1(CCCC)CS(=O)(=O)c2ccc(N(C)C)cc2C(c2cccc(C[N+](C)(C)CCN(C)C)c2)C1O` (centres unmarked) [Example 1233]: the IC50 stood at 0.15 µM.

On to `CCCCC1(CCCC)CS(=O)(=O)c2ccc(N(C)C)cc2C(c2cccc(C[N+](C)(C)C)c2)C1O` (centres unmarked) [Example 1234], for which the IC50 came to 0.067 µM.

Consider `CCCCC1(CCCC)CS(=O)(=O)c2ccc(N(C)C)cc2C(c2cccc(OCCN(CC)CC)c2)C1O` (centres unmarked) [Example 1235], for which the IC50 is 0.045 µM.

Turning to `CCCCC1(CCCC)CS(=O)(=O)c2ccc(N(C)C)cc2C(c2ccc(CBr)cc2)C1O` (centres unmarked) [Example 1236], the IC50 was found to be 0.05 µM.

Consider `CCCCC1(CCCC)CS(=O)(=O)c2ccc(N(C)C)cc2C(c2ccc(OCC[N+](C)(C)CCOCCOCC[N+](C)(C)C)cc2)C1O` (centres unmarked) [Example 1237], for which the IC50 was 0.07 µM.

With `C=COCCOCCOCCOc1ccc(C2c3cc(N(C)C)ccc3S(=O)(=O)CC(CCCC)(CCCC)C2O)cc1F` (centres unmarked) [Example 1238], the IC50 turned out to be 0.8 µM.

Take `CCCCC1(CCCC)CS(=O)(=O)c2ccc(N(C)C)cc2C(c2ccc(OCCOCCBr)c(F)c2)C1O` (centres unmarked) [Example 1239]: the IC50 came to 0.035 µM.

For the compound `CCCCC1(CCCC)CS(=O)(=O)c2ccc(N(C)C)cc2C(c2ccc(OC)c(C)c2)C1O` (centres unmarked) [Example 1240], the IC50 was found to be 0.016 µM.

Consider `CCCCC1(CCCC)CS(=O)(=O)c2ccc(N(C)C)cc2C(c2cccc(CN(C)C)c2)C1O` (centres unmarked) [Example 1241], for which the IC50 was 0.047 µM.

Take `CCCCC1(CCCC)CS(=O)(=O)c2ccc(N(C)C)cc2C(c2ccc(OCCOCCOCCOCCCl)c(F)c2)C1O` (centres unmarked) [Example 1242]: the IC50 was 0.029 µM.

Turning to `CCCCC1(CCCC)CS(=O)(=O)c2ccc(N(C)C)cc2C(c2ccc(O)c(C[N+](C)(C)C)c2)C1O` (centres unmarked) [Example 1243], the IC50 was 0.63 µM.

In the case of `CCCCC1(CCCC)CS(=O)(=O)c2ccc(N(C)C)cc2C(c2cccc([N+](C)(C)C)c2)C1O` (centres unmarked) [Example 1245], the IC50 is 0.32 µM.

For the compound `CCCCC1(CCCC)CS(=O)(=O)c2ccc(N(C)C)cc2C(c2cccc(CBr)c2)C1O` (centres unmarked) [Example 1246], the IC50 worked out at 0.018 µM.

For `CCCCC1(CCCC)CS(=O)(=O)c2ccc(N(C)C)cc2C(c2ccc3cc(O)ccc3c2)C1O` (centres unmarked) [Example 1247], the IC50 came to 0.017 µM.

Consider `CCCCC1(CCCC)CS(=O)(=O)c2ccc(N(C)C)cc2C(c2ccc(O)c(CN(C)C)c2)C1O` (centres unmarked) [Example 1248], for which the IC50 was determined as 0.33 µM.

On to `CCCCC1(CCCC)CS(=O)(=O)c2ccc(N(C)C)cc2C(c2ccc(C[N+](C)(C)CCO)cc2)C1O` (centres unmarked) [Example 1249], for which the IC50 was 10.2 µM.

As to `CCCCC1(CCCC)CS(=O)(=O)c2ccc(N(C)C)cc2C(c2cccc(N(C)C)c2)C1O` (centres unmarked) [Example 1250], the IC50 is 0.013 µM.

In the case of `CCCCC1(CCCC)CS(=O)(=O)c2ccc(N(C)C)cc2C(c2cccc3ccccc23)C1O` (centres unmarked) [Example 1251], the IC50 amounted to 0.62 µM.
